In patent US20190255073A1, “ESTERS OF 3-POLYAMINE DERIVATIVES OF BILE ACIDS FOR THE TREATMENT OF INFECTIONS” (VIRBAC, priority 2016, published 2019):
Values after ≈ are worked out from the molar mass of the structure shown. Where two headings read alike, the source gives them in different places.

How the values were obtained:
[1] = test system: S. aureus ATCC25923; assay: MIC determination by microplate dilution, S. aureus human strain; assay type: cell-based, Staphylococcus aureus; conditions: Staphylococcus aureus, ATCC25923, Gram-positive, Mueller-Hinton medium, 24 h, 37° C.
Method in brief: (§1)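 In Mueller-Hinton broth, strains seeded at an OD of 0.01 are exposed to two-fold dilutions of compound (stock 5 mg/mL in DMSO/methanol) for 24 h at 37 °C. Growth is then measured by absorbance at 620 nm.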

[2] = test system: S. aureus (340); assay: MIC determination by microplate dilution, S. aureus animal strain; assay type: cell-based, Staphylococcus aureus; conditions: Staphylococcus aureus, Gram-positive, Mueller-Hinton medium, 24 h, 37° C.
Method in brief: as §1

[3] = test system: S. intermedius (1051997); assay: MIC determination by microplate dilution, S. intermedius animal strain; assay type: cell-based, Staphylococcus intermedius; conditions: Staphylococcus intermedius, Gram-positive, Mueller-Hinton medium, 24 h, 37° C.
Method in brief: as §1

[4] = test system: E. faecalis ATCC29212; assay: MIC determination by microplate dilution, E. faecalis human strain; assay type: cell-based, Enterococcus faecalis; conditions: Enterococcus faecalis, ATCC29212, Gram-positive, Mueller-Hinton medium, 24 h, 37° C.
Method in brief: as §1

[5] = test system: E. coli ATCC28922; assay: MIC determination by microplate dilution, E. coli human strain; assay type: cell-based, Escherichia coli; conditions: Escherichia coli, ATCC28922, Gram-negative, Mueller-Hinton medium, 24 h, 37° C.
Method in brief: as §1

[6] = test system: E. coli (1956); assay: MIC determination by microplate dilution, E. coli animal strain; assay type: cell-based, Escherichia coli; conditions: Escherichia coli, Gram-negative, Mueller-Hinton medium, 24 h, 37° C.
Method in brief: as §1

[7] = test system: P. aeruginosa ATCC27853; assay: MIC determination by microplate dilution, P. aeruginosa human strain; assay type: cell-based, Pseudomonas aeruginosa; conditions: Pseudomonas aeruginosa, ATCC27853, Gram-negative, Mueller-Hinton medium, 24 h, 37° C.
Method in brief: as §1

[8] = test system: P. aeruginosa (1051575); assay: MIC determination by microplate dilution, P. aeruginosa animal strain; assay type: cell-based, Pseudomonas aeruginosa; conditions: Pseudomonas aeruginosa, Gram-negative, Mueller-Hinton medium, 24 h, 37° C.
Method in brief: as §1

[9] = test system: CHO-K1 cells; assay: WST1 cytotoxicity test on CHO-K1 cells; assay type: cell-based, Chinese hamster; conditions: Cricetulus griseus
Method in brief: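 Viability read-out: WST-1 tetrazolium cleavage by mitochondrial dehydrogenases, 20 min at 37 °C, A450. Compounds added at rising concentrations, in duplicate, to CHO-K1 cells for 24 h (37 °C, 5% CO2). IC50, the concentration halving viability, fitted by nonlinear regression.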

[10] = test system: P. aeruginosa (1051575); assay: Potentiation of the doxycycline activity at 2 μg/mL; assay type: cell-based, Pseudomonas aeruginosa; conditions: in combination with doxycycline 2 μg/mL; 24 h, 37°
[11] = test system: C. albicans; assay: Antifungal activity, cascade microdilution, C. albicans; assay type: cell-based, Candida albicans; conditions: Candida albicans, 24 h, read-out: IC50 (μg/mL) C. albicans
[12] = test system: P. aeruginosa (1051575); assay: Potentiation of erythromycin activity; assay type: cell-based, Pseudomonas aeruginosa; conditions: concentration of compound required with erythromycin 2 μg/mL
Protocol: (§2) This method requires the use of a 96-well plate: 100 μL of a liquid culture medium are placed in each well and then seeded with the microbial suspension prepared previously. The required volume to be seeded is calculated for an OD of 0.01, which corresponds to about 5×10^6 bacteria in each well. In this plate, the first line corresponds to a negative control (200 μL of sterile culture medium in each well), the second line corresponds to a positive control (100 μL of sterile culture medium+100 μL of the bacterial suspension), and the third line contains 192 μL of culture medium; 8 μL of compound of formula (I) to be tested are placed in each well. Thereafter, a cascade dilution is performed from this line. μL of a doxycycline solution (1 mg dissolved in 20 mL) are then added to each well of the lines 3 to 8 to obtain a final antibiotic concentration of 2 μg/mL. 92 μL of bacterial suspension are then added to lines 3 to 8. […] After 24 hours of incubation at 37° C., 40 μL of nitro tetrazolium iodide are added to each well to reveal the presence of live bacteria by staining the medium pink.
The procedure is identical to that indicated in Example 5 above. 8 μL of an antibiotic solution under consideration (1 mg dissolved in 20 mL) are added to obtain a final antibiotic concentration of 2 μg/mL instead of 8 μL of a doxycycline solution.
(§3) The results are given in table V. They indicate the concentration of compound of formula (I) required to be able to restore the activity of the antibiotic under consideration.

[13] = test system: P. aeruginosa (1051575); assay: Potentiation of chloramphenicol activity; assay type: cell-based, Pseudomonas aeruginosa
Protocol: as §2, with “Thereafter, a cascade dilution is performed from this line. μL of a doxycycline solution (1 mg dissolved in 20 mL) are then added to each well of the lines 3 to 8 to obtain a final antibiotic concentration of 2 μg/mL.” left out
(§4) The procedure is identical to that indicated in Example 5 above. […]
as §3

[14] = test system: P. aeruginosa (1051575); assay: Potentiation of ampicillin activity; assay type: cell-based, Pseudomonas aeruginosa; conditions: concentration of compound required with ampicillin 4 μg/mL
Protocol: as §2, with “Thereafter, a cascade dilution is performed from this line. μL of a doxycycline solution (1 mg dissolved in 20 mL) are then added to each well of the lines 3 to 8 to obtain a final antibiotic concentration of 2 μg/mL.” left out
as §4, §3

[15] = CHO-K1, 24 h, read-out: IC50 (μg/mL) CHO
[16] = CHO-K1, read-out: IC50 (μg/mL) CHO
[17] = concentration of compound required with chloramphenicol 2 μg/mL

Compound	MIC [1] [µg/mL]	MIC [2] [µg/mL]	MIC [3] [µg/mL]	MIC [4] [µg/mL]	MIC [5] [µg/mL]	MIC [6] [µg/mL]	MIC [7] [µg/mL]	MIC [8] [µg/mL]	IC50 [9, 15] [µg/mL]	IC50 [9, 16] [µg/mL]	MIC - P. aeruginosa (1051575): content of compound of formula (I) to restore the doxycycline activity (at 2 μg/mL) [10] [µg/mL]	IC50 [11] [µg/mL]	MIC P. aeruginosa (1051575), compound + erythromycin [12] [µg/mL]	MIC P. aeruginosa (1051575), compound + chloramphenicol [13, 17] [µg/mL]	MIC P. aeruginosa (1051575), compound + ampicillin [14] [µg/mL]	MIC P. aeruginosa (1051575), compound + chloramphenicol ([13]; concentration of compound required with chloramphenicol 4 μg/mL) [µg/mL]
COC(=O)CC[C@@H](C)[C@H]1CCC2C3CCC4C[C@@H](NCCCN(C)CCCN)CC[C@]4(C)C3C[C@H](O)[C@@]21C (stereo partly drawn) [(31), methyl 3β-(bis(3-aminopropyl)methylamine)deoxycholate]	7 (≈ 13.1 µM)	7 (≈ 13.1 µM)	3 (≈ 5.62 µM)	13 (≈ 24.4 µM)	26 (≈ 48.7 µM)	13 (≈ 24.4 µM)	26 (≈ 48.7 µM)	13 (≈ 24.4 µM)	55 (≈ 103 µM)	55 (≈ 103 µM)	3	2 (≈ 3.75 µM)				
COC(=O)CC[C@@H](C)[C@H]1CCC2C3CCC4C[C@@H](NCCNCCNCCNCCN)CC[C@]4(C)C3C[C@H](O)[C@@]21C (stereo partly drawn) [(19), methyl 3β-(tetraethylenepentamine)deoxycholate]	4 (≈ 6.92 µM)	7 (≈ 12.1 µM)	7 (≈ 12.1 µM)	7 (≈ 12.1 µM)	7 (≈ 12.1 µM)	29 (≈ 50.2 µM)	15 (≈ 26 µM)	7 (≈ 12.1 µM)	40 (≈ 69.2 µM)	40 (≈ 69.2 µM)	4	4 (≈ 6.92 µM)				
CC(C)OC(=O)CC[C@@H](C)[C@H]1CCC2C3C(CC[C@@]21C)[C@@]1(C)CC[C@H](NCCCN(C)CCCN)CC1C[C@@H]3O (stereo partly drawn) [(44), isopropyl 3β-(bis(3-aminopropyl)methylamine)ursodeoxycholate]		28 (≈ 49.8 µM)	14 (≈ 24.9 µM)			56 (≈ 99.7 µM)		28 (≈ 49.8 µM)					55	14		
CC(C)OC(=O)CC[C@@H](C)[C@H]1CCC2C3CCC4C[C@@H](NCCCN(C)CCCN)CC[C@]4(C)C3CC[C@@]21C (stereo partly drawn) [(49), isopropyl 3β-(bis(3-aminopropyl)methylamine)lithocholate]		27 (≈ 49.5 µM)	14 (≈ 25.6 µM)			27 (≈ 49.5 µM)		27 (≈ 49.5 µM)					55	14		
CC(C)OC(=O)CC[C@@H](C)[C@H]1CCC2C3CCC4C[C@@H](NCCCNCCCN)CC[C@]4(C)C3CC[C@@]21C (stereo partly drawn) [(16), isopropyl 3β-norspermidinolithocholate]	3.5 (≈ 6.58 µM)	3.5 (≈ 6.58 µM)	7 (≈ 13.2 µM)	3.5 (≈ 6.58 µM)	14 (≈ 26.3 µM)	7 (≈ 13.2 µM)	7 (≈ 13.2 µM)	3.5 (≈ 6.58 µM)	13 (≈ 24.4 µM)	13 (≈ 24.4 µM)	3	2 (≈ 3.76 µM)				
CC(C)OC(=O)CC[C@@H](C)[C@H]1CCC2C3C(C[C@H](O)[C@@]21C)[C@@]1(C)CC[C@H](NCCCN(C)CCCN)CC1C[C@H]3O (stereo partly drawn) [(36), isopropyl 3β-(bis(3-aminopropyl)methylamine)cholate]	29 (≈ 50.2 µM)	29 (≈ 50.2 µM)	14 (≈ 24.2 µM)	58 (≈ 100 µM)	58 (≈ 100 µM)	58 (≈ 100 µM)	58 (≈ 100 µM)	58 (≈ 100 µM)			4		58		58	8
